Format in all cases: ADME
For data set [1], the target named is T1, Solute carrier family 22 member 2 (Homo sapiens, UniProt O15244).
T1 sequence (O15244 whole entry): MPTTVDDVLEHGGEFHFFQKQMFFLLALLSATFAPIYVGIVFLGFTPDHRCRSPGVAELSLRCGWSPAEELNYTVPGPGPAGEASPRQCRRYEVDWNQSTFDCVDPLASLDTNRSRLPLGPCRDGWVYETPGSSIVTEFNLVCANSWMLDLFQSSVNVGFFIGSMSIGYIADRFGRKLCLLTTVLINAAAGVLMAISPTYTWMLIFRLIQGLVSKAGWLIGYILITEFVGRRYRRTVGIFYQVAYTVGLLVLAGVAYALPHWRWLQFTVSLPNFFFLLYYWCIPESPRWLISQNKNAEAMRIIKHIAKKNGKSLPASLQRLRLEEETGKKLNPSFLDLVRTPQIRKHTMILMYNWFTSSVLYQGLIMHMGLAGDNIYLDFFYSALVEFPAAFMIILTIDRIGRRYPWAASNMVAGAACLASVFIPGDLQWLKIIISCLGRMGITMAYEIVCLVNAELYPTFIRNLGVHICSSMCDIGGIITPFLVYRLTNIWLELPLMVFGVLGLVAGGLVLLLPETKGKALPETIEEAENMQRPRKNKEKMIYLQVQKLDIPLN
Kind of data set: Inhibitors of transporters of clinical importance in the absorption and disposition of drugs, OCT2.

Data set [2] has as its target Phosphatidylcholine translocator ABCB4 (Homo sapiens, UniProt P21439). Kind of data set: Substrates of transporters of clinical importance in the absorption and disposition of drugs, MDR3.
Data set [3] has as its target ATP-dependent translocase ABCB1 (Homo sapiens, UniProt P08183). Kind of data set: Substrates of transporters of clinical importance in the absorption and disposition of drugs, MDR1.
Data set [4] deals with T2, Solute carrier organic anion transporter family member 1A2 (Homo sapiens, UniProt P46721).
T2 sequence (P46721 whole entry): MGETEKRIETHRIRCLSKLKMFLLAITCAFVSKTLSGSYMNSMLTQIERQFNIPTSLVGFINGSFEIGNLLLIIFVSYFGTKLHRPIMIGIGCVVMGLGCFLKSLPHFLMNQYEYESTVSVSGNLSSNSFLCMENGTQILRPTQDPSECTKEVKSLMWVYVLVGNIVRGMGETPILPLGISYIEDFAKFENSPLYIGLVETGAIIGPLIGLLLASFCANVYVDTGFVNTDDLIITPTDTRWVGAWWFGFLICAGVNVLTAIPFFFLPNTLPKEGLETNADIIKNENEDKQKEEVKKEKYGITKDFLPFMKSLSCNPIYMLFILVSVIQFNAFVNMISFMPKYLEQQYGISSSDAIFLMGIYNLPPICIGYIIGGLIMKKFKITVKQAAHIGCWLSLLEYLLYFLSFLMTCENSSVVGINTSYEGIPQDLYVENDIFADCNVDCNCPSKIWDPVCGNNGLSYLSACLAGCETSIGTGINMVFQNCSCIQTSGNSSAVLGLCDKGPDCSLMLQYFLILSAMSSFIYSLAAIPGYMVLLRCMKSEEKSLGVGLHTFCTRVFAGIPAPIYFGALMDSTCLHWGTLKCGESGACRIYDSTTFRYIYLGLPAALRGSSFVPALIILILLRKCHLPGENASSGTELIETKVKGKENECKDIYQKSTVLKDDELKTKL
Kind of data set: Substrates of transporters of clinical importance in the absorption and disposition of drugs, OATP1A2.

The target of data set [5] is T3, Solute carrier organic anion transporter family member 2B1 (Homo sapiens, UniProt O94956).
T3 sequence (O94956 whole entry): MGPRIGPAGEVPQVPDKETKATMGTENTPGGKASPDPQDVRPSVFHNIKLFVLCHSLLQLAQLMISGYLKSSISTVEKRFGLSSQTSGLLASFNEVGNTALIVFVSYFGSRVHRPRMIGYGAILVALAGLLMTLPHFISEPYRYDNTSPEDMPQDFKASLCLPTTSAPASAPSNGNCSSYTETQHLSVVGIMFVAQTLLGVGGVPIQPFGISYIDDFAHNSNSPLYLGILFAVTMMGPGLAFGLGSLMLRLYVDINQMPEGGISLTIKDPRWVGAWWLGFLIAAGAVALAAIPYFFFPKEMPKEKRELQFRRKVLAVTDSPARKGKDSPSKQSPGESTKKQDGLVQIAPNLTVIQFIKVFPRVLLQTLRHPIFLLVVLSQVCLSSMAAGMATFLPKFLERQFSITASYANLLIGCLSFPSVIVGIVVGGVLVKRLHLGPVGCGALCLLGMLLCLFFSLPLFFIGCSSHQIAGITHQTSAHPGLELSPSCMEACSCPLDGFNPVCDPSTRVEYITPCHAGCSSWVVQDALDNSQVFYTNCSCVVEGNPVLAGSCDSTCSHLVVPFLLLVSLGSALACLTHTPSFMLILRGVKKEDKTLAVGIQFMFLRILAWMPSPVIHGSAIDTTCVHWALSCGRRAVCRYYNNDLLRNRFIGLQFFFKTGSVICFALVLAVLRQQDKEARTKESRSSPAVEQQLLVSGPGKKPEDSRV
In words: Substrates of transporters of clinical importance in the absorption and disposition of drugs, OATP2B1.

For data set [6], the target named is T4, Solute carrier organic anion transporter family member 1B1 (Homo sapiens, UniProt Q9Y6L6).
T4 sequence (Q9Y6L6 whole entry): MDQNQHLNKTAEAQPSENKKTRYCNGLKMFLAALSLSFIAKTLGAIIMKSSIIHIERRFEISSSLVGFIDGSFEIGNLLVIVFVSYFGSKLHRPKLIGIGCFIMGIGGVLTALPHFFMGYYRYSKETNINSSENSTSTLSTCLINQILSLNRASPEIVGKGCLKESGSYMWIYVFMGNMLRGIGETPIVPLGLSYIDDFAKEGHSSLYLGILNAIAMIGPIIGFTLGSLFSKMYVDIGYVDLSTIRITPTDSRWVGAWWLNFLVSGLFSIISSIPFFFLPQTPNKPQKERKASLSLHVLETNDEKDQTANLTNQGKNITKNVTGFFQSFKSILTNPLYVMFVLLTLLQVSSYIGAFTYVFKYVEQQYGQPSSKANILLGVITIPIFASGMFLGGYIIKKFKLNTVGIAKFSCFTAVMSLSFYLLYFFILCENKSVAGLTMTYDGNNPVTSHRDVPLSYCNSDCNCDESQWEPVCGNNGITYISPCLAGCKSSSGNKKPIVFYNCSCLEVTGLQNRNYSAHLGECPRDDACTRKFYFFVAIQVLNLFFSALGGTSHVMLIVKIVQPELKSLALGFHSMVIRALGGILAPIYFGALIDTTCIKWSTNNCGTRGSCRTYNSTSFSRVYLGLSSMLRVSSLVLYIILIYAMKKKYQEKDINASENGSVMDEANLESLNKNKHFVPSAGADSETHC
Kind of data set: Substrates of transporters of clinical importance in the absorption and disposition of drugs, OATP1B1.

Data set [7] deals with T5, Organic anion transporter 3 (Homo sapiens, UniProt Q8TCC7).
T5 sequence (Q8TCC7 whole entry): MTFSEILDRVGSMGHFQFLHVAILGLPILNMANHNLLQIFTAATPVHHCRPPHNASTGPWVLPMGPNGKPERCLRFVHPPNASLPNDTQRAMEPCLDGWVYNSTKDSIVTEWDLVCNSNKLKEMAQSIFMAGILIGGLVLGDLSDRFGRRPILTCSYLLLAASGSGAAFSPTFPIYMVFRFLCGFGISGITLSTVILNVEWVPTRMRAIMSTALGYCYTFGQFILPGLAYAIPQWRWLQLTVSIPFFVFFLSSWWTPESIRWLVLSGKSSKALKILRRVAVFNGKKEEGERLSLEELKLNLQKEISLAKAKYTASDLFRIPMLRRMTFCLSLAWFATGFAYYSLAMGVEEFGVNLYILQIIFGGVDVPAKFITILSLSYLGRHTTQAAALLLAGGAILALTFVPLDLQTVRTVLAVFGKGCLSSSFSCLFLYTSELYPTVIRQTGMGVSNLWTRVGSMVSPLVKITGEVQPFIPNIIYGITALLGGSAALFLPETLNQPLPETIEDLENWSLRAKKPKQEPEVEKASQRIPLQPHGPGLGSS
In words: Substrates of transporters of clinical importance in the absorption and disposition of drugs, OAT3.

The target of data set [8] is T6, Solute carrier organic anion transporter family member 1B3 (Homo sapiens, UniProt Q9NPD5).
T6 sequence (Q9NPD5 whole entry): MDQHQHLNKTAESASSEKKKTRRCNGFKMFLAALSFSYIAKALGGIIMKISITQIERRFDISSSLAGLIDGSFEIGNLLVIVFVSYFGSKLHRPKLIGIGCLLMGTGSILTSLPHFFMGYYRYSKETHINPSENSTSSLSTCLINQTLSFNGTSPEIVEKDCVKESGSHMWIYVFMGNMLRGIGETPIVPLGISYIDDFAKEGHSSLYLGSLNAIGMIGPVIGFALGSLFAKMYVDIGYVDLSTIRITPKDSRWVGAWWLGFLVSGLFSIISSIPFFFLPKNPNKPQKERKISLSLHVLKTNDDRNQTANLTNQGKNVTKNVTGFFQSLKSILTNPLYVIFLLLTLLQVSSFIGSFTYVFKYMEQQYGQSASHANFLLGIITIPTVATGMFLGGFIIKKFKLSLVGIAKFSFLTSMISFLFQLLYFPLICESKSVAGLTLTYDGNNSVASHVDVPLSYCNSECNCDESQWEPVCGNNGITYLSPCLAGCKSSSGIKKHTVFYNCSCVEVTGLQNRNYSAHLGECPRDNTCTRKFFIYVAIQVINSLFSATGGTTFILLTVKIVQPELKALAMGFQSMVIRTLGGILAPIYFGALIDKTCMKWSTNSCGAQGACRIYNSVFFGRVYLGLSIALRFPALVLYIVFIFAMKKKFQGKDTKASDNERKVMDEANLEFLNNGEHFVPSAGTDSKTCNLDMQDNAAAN
Kind of data set: Substrates of transporters of clinical importance in the absorption and disposition of drugs, OATP1B3.

In data set [9] the target is T7, Solute carrier family 22 member 1 (Homo sapiens, UniProt O15245).
T7 sequence (O15245 whole entry): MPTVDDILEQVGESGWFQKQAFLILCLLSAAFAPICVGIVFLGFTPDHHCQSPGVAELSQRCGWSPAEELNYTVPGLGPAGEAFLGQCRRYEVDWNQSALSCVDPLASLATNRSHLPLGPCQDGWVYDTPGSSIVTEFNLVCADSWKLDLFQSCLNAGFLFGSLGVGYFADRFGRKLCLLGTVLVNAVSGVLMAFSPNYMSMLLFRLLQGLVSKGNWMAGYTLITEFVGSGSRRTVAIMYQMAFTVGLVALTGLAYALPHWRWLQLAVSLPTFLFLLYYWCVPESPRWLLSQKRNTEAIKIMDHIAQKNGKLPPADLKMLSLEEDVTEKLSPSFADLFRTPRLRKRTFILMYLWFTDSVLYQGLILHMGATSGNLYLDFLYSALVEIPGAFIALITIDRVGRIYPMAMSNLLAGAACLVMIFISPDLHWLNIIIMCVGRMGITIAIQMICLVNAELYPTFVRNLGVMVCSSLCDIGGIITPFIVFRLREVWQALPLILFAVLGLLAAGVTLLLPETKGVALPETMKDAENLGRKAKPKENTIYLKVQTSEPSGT
Kind of data set: Substrates of transporters of clinical importance in the absorption and disposition of drugs, OCT1.

Data set [10] addresses T1, Solute carrier family 22 member 2. Kind of data set: Substrates of transporters of clinical importance in the absorption and disposition of drugs, OCT2.

Chain of Phosphatidylcholine translocator ABCB4 (P21439 whole entry): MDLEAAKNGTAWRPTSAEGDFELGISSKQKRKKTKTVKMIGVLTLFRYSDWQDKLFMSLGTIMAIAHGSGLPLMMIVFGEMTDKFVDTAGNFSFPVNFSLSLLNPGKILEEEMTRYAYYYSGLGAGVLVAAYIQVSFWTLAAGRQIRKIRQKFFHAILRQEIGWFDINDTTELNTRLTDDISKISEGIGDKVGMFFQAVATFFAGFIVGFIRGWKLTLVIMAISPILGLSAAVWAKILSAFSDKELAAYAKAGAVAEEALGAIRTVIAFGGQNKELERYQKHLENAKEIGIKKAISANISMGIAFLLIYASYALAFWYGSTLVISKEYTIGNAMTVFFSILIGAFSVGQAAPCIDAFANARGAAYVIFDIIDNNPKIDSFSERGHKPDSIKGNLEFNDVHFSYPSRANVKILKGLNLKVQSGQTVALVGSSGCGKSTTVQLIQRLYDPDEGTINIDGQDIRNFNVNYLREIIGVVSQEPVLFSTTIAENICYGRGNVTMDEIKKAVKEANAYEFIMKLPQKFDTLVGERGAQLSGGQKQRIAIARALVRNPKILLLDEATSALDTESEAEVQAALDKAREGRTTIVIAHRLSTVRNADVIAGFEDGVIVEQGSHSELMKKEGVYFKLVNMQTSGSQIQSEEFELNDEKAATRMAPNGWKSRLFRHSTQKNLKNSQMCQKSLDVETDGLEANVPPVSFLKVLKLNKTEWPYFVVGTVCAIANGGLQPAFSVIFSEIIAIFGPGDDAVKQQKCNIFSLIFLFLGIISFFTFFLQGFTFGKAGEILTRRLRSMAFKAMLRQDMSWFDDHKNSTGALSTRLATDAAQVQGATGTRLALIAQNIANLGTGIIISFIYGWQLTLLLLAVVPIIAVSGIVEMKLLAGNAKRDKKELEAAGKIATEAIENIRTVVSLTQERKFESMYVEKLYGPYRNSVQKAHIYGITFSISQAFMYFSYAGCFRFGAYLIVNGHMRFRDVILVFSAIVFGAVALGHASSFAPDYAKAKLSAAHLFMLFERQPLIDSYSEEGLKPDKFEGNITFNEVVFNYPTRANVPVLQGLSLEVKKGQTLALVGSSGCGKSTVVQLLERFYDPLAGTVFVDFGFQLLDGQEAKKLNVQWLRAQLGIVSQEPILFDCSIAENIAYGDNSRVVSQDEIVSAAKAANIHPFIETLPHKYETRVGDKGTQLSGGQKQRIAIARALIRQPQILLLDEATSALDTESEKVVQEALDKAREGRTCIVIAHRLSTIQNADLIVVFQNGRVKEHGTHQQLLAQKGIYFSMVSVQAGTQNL
Chain of ATP-dependent translocase ABCB1 (P08183 whole entry): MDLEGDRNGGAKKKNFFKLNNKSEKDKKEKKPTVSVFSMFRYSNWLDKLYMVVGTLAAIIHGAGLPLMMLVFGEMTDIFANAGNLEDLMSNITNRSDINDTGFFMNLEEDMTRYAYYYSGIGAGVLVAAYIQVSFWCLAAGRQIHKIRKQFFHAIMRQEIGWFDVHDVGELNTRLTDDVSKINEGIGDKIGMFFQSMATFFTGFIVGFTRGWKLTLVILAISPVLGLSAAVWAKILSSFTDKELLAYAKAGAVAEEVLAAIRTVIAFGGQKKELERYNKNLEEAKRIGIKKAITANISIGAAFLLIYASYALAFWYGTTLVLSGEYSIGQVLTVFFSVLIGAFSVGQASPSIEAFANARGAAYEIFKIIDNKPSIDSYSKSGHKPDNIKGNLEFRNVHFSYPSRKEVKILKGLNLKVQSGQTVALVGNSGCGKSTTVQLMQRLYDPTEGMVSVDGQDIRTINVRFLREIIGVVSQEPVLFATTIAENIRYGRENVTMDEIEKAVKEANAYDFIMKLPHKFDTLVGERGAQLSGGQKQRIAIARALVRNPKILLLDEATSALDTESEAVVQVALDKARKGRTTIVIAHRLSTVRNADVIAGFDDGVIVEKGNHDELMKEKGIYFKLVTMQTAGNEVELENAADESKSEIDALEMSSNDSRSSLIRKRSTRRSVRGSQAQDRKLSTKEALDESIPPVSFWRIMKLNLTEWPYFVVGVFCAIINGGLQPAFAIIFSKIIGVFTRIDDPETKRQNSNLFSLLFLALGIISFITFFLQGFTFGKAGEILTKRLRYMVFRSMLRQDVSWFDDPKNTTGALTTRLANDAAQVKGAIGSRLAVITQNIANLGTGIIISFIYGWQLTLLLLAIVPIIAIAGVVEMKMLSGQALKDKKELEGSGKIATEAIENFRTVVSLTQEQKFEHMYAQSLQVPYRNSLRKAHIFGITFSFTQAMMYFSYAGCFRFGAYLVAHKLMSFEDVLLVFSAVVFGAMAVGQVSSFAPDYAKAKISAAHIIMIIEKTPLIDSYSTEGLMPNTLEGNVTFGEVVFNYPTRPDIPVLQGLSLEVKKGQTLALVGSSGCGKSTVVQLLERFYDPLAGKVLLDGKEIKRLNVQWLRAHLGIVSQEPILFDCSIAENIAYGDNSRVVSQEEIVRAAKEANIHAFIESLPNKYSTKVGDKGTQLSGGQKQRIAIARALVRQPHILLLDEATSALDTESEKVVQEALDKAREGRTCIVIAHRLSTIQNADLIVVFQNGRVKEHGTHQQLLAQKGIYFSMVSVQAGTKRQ

Consider `O=C(O)COCCN1CCN(C(c2ccccc2)c2ccc(Cl)cc2)CC1` (stereo not given) [CETIRIZINE], for which the Activity entry in [1] is “transporter inhibitor”.

With `CN/C(=N/CCSCc1nc[nH]c1C)NC#N` [CIMETIDINE], in [1], the Activity result is “transporter inhibitor”.

Take `C[C@H]1O[C@@H](O[C@H]2[C@@H](O)C[C@H](O[C@H]3[C@@H](O)C[C@H](O[C@H]4CC[C@@]5(C)[C@H](CC[C@@H]6[C@@H]5C[C@@H](O)[C@]5(C)[C@@H](C7=CC(=O)OC7)CC[C@]65O)C4)O[C@@H]3C)O[C@@H]2C)C[C@H](O)[C@@H]1O` [DIGOXIN]: the Activity entry in data set [2] and in data set [3] was “transporter substrate” throughout.

Consider `C[C@]12CC[C@@H]3c4ccc(OS(=O)(=O)O)cc4CC[C@H]3[C@@H]1CCC2=O` [ESTRONE SULFURIC ACID], for which the Activity result in [4], in data set [5], in data set [6] and in data set [7] was “transporter substrate” in each case.

As for `CC(=O)O[C@H]1C(=O)[C@@]2(C)[C@H]([C@H](OC(=O)c3ccccc3)[C@]3(O)C[C@H](OC(=O)[C@H](O)[C@@H](NC(=O)c4ccccc4)c4ccccc4)C(C)=C1C3(C)C)[C@]1(OC(C)=O)CO[C@@H]1C[C@@H]2O` [PACLITAXEL], the Activity result in data set [2] and in data set [3] was “transporter substrate” in each case.

As to `CCCCCCCCCCCCCCSCC(=O)OC[C@H](COP(=O)([O-])OCC[N+](C)(C)C)OC(=O)CSCCCCCCCCCCCCCC` [PHOSPHATIDYLCHOLINE], the Activity entry in [2] is reported as “transporter substrate”.

In the case of `Cc1cccc(C)c1NC(=O)CC12CCCN1CCC2` [PILSICAINIDE], in [1], the Activity result is “transporter inhibitor”.

For `O=C1OC(c2ccc(O)c(S(=O)(=O)[O-])c2)(c2ccc(O)c(S(=O)(=O)[O-])c2)c2c(Br)c(Br)c(Br)c(Br)c21.[Na+].[Na+]` [SULFOBROMOPHTHALEIN SODIUM], the Activity entry in [4], in data set [5], in data set [6] and in [8] was “transporter substrate” in each case.

Regarding `CC[C@]1(O)C[C@@H]2CN(CCc3c([nH]c4ccccc34)[C@@](C(=O)OC)(c3cc4c(cc3OC)N(C)[C@H]3[C@@](O)(C(=O)OC)[C@H](OC(C)=O)[C@]5(CC)C=CCN6CC[C@]43[C@@H]65)C2)C1` [VINBLASTINE], the Activity result in data set [2] and in data set [3] was “transporter substrate” each time.

For the molecule OXALIPLATIN, the Activity entry in [9] and in data set [10] was “transporter substrate” throughout.

The record behind these values is ChEMBL document CHEMBL1743141, “Membrane transporters in drug development” (Nat Rev Drug Discov, 2010).
